# Data reported in US20120003661A1, “METHODS AND DEVICES FOR THE SELECTIVE DETECTION OF MICROORGANISMS” (C3 JIAN, INC., priority 2010, published 2012).
# “Also recorded” adds a separate entry of the source. Where two headings read alike, the source gives them in different places.
# Tested on: bacteria, fungi, and/or yeasts
# Format: binding
# [1] = microorganism(s) the targeting peptide binds, as listed in Table 2
# [2] = microorganism(s) listed as target(s) of the targeting peptide, wrapped target lists given cell by cell
# [3] = microorganism(s) that the targeting peptide binds, as listed in Table 2
Substance,Target(s) [1],Target(s) [2],other results
1T-151 (SVRAVKPIDEIVAWHFPGDFIVN),"A. naeslundii, F. nucleatum, P. gingivalis,; also recorded: T. denticola, S. gordonii,; also recorded: S. mitis, S. mutans, S. oralis,; also recorded: S. salivarious, S. sanguinis",,
1T-146 (RNSADNQTKIDKIRIDISLWDEHLNIVKQGK),"A. naeslundii, F. nucleatum, P. gingivalis,; also recorded: T. denticola, S. gordonii,; also recorded: S. mitis, S. mutans, S. oralis,; also recorded: S. salivarious, S. sanguinis",,
1T-80 (GGNLGPGFGVIIP),S. pneumoniae,,
PF-161 (RGRALASTATTRPARRRR),,"S. epidermidis, M. luteus, E. coli,; also recorded: C. jejuni",
PF-784 (MAMTTVDNIVGLVIAVALMAFLFAALLFPEKF),,,Target(s) [3]: Mycobacteria spp.
PF-147 (RRPRRRRSGHGQSASAA),,"S. epidermidis, M. luteus, MRSA",
1T-274 (ETTTEINAIKLHRIKQRSPQGTRRVN),,"F. nucleatum, S. mutans, S. oralis,; also recorded: S. sanguinis",
1T-109 (VTTNVRQGAGS),"A. naeslundii, S. epidermidis, S. gordonii,; also recorded: S. mitis, S. mutans, S. oralis,; also recorded: S. salivarious, S. sanguinis",,
PF-C064 (DEEALEMGANLYAQFAIDFLNSKK),,,"Target(s) [3]: A. naeslundii, F. nucleatum, P. gingivalis,; also recorded: S. mutans, T. denticola"
1T-152 (YVSADESAYNHIVTDDIPLADRRIEAVQQ),"A. naeslundii, F. nucleatum, P. gingivalis,; also recorded: S. epidermidis, S. gordonii,; also recorded: S. mitis, S. mutans, S. oralis,; also recorded: S. salivarious, S. sanguinis",,
PF-012 (WRGPNTEAGGKSANNIVQVGGAPT),,"S. epidermidis, M. luteus, P. mirabilis,; also recorded: E. coli, P. aeruginosa,; also recorded: MRSA, S. pneumoniae, C. jeikeium,; also recorded: C. jejuni",
PF-543,,C. albicans hyphae,
PF-126 (FSPEAFGIGAAGVLGSFVTGLLIGWVASLLRKAK),,"S. epidermidis, M. luteus, P. mirabilis,; also recorded: E. coli, P. aeruginosa,; also recorded: C. albicans, MRSA, S. pneumoniae,; also recorded: E. faecalis, C. jeikeium,; also recorded: C. jejuni",
PF-150 (EIQAKGTG),,"S. epidermidis, MRSA",
1T-26 (LTILPTTFFAIIVPILAVAFIAYSGFKIKGIVEHKDQW),"S. mutans, S. aureus, S. epidermidis,; also recorded: C. jeikeium, C. xerosis,; also recorded: C. striatum, P. aeruginosa",,
PF-027 (HNARKYLEFISQKIDGDKLTKEDSL),,"M. luteus, MRSA, E. faecalis, C. jejuni",
PF-036 (ILNRLSRIVSNEVTSLIYSLK),,"S. epidermidis, M. luteus, P. mirabilis,; also recorded: E. coli, C. albicans,; also recorded: MRSA, S. pneumoniae, C. jejuni",
1T-138 (YPNEYCIFLENLSLEELKEIKAINGETLNLEEIINERKNLKD),"A. naeslundii, F. nucleatum, P. gingivalis,; also recorded: S. epidermidis, S. gordonii,; also recorded: S. mitis, S. mutans, S. oralis,; also recorded: S. salivarious, S. sanguinis",,
1T-162 (QKAKEESDRKAAVSYNGFHRVNVVSIPK),"A. naeslundii, F. nucleatum, P. gingivalis,; also recorded: T. denticola, S. gordonii,; also recorded: S. mitis, S. mutans, S. oralis,; also recorded: S. salivarious, S. sanguinis",,
1T-230 (EFLEKFKVLKQPRKANNISKNRVAMIFLTIHKSRGFLSSPY),"A. naeslundii, F. nucleatum, P. gingivalis,; also recorded: S. epidermidis, S. gordonii,; also recorded: S. mitis, S. mutans, S. oralis,; also recorded: S. salivarious, S. sanguinis",,
1T-52 (DEYPAKLPLSDKGATEPRRH),"S. aureus, C. xerosis, P. aeruginosa",,
1T-53 (SDILAEMFEKGELQTLVKDAAAKANA),P. aeruginosa,,
1T-106 (DALRRSRSQGRRHR),"S. gordonii, S. mitis, S. mutans,; also recorded: S. oralis, S. salivarious",,

Substance,Target(s) [1],Target(s) [2],other results
PF-005 (MESIFKIKLMNGICRSENMNMKKKNKGEKI),,"S. epidermidis, E. coli, MRSA, S. pneumoniae,; also recorded: E. faecalis",
1T-275 (QVLKNFSISRRYKINNPFFKILLFIQLRTL),,"A. naeslundii, F. nucleatum, P. gingivalis,; also recorded: T. denticola, S. epidermidis,; also recorded: S. gordonii, S. mitis,; also recorded: S. mutans, S. oralis, S. salivarious,; also recorded: S. sanguinis",
1T-296 (EYSQQSFKAKPCSERGVLSP),,"A. naeslundii, F. nucleatum, P. gingivalis,; also recorded: S. gordonii, S. mitis,; also recorded: S. mutans, S. oralis, S. salivarious,; also recorded: S. sanguinis",
1T-240 (VILGNGISNIAQTLGQLPNIAWVWIYMVLIAALLEESNVC),"A. naeslundii, F. nucleatum, P. gingivalis,; also recorded: S. epidermidis, S. gordonii,; also recorded: S. mitis, S. mutans, S. oralis,; also recorded: S. salivarious, S. sanguinis",,
1T-249 (VFSVLKHTTWPTRKQSWHDFISILEYSAFFALVIFIFDKLLTLGLAELLKRF),,"F. nucleatum, S. sanguinis",
PF-137 (VLGKGHDLLDVGKTALKSRVFAWLGGS),,"S. epidermidis, P. mirabilis, S. pneumoniae,; also recorded: C. jeikeium, C. jejuni",
PF-134 (GKAMKRQDCSAL),,"S. epidermidis, C. jeikeium",
1T-195 (AASGFTYCASNGVWHPY),S. mutans,,
1T-123 (LVRRNAVAGRSDGLAGAEQLDLVRLQGVL),S. gordonii,,
1T-18 (YSKTLHFAD),"S. aureus, S. epidermidis, C. striatum,; also recorded: P. aeruginosa",,
PF-071 (HCVIGNVVDIANLLKRRAVYRDIADVIKMR),,"S. epidermidis, E. coli, P. aeruginosa,; also recorded: C. albicans, MRSA,; also recorded: S. pneumoniae, E. faecalis, C. jeikeium,; also recorded: C. jejuni",
PF-C008 (AQPRRTWLVNFGEVPSPGLTNDGMPDH),,,Target(s) [3]: A. naeslundii
1T-22 (VPLDDGTRRPEVARNRDKDRED),"S. epidermidis, P. aeruginosa",,
1T-282 (ISLVFPAYT),,"F. nucleatum, P. gingivalis, S. gordonii,; also recorded: S. mitis, S. mutans, S. oralis,; also recorded: S. salivarious, S. sanguinis",
1T-203 (YPFCLATVDHLPEGLSVTDYERVQRLVSQFLLNKEER),"A. naeslundii, F. nucleatum, P. gingivalis,; also recorded: S. epidermidis, S. gordonii,; also recorded: S. mitis, S. mutans, S. oralis,; also recorded: S. salivarious, S. sanguinis",,
PF-C093 (EKLGTMV),,,"Target(s) [3]: A. naeslundii, F. nucleatum, S. mutans"
1T-47 (VIKISVPGQVQMLIP),"S. mutans, S. epidermidis, P. aeruginosa",,
1T-130 (QKIIDMSKFLFSLILFIMIVVIYIGKSIGGYSAIVSSIMLELDTVLYNKKIFFIYK),"A. naeslundii, F. nucleatum, P. gingivalis,; also recorded: S. epidermidis, S. gordonii,; also recorded: S. mitis, S. mutans, S. oralis,; also recorded: S. salivarious, S. sanguinis",,
1T-12 (FGNIFKGLKDVIETIVKWTAAK),"C. xerosis, C. striatum, S. epidermidis,; also recorded: S. mutans",,
1T-32 (VSFLAGWLCLGLAAWRLGNA),S. mutans,,
1T-3 (VLGIAGGLDAYGELVGGN),"S. mutans, S. gordonii",,
PF-054 (VSISRFIGGGHVFNGNNKRNL),,"S. epidermidis, E. coli",
PF-025 (LLIIFRLWLELKWKNKK),,"S. epidermidis, M. luteus, P. mirabilis,; also recorded: E. coli, P. aeruginosa,; also recorded: MRSA, E. faecalis, C. jejuni",

Substance,Target(s) [1],Target(s) [2],other results
1T-248 (IGGALNSCG),S. sanguinis,,
1T-150 (YINRRLKKAFSDADIKEAPAEFYEELRRVQYV),"A. naeslundii, F. nucleatum, P. gingivalis,; also recorded: T. denticola, S. gordonii,; also recorded: S. mitis, S. mutans, S. oralis,; also recorded: S. salivarious, S. sanguinis",,
PF-056 (AEQLFGKQKQRGVDLFLNRLTIILSILFFVLMICISYLGM),,"S. epidermidis, M. luteus, P. mirabilis,; also recorded: E. coli, P. aeruginosa,; also recorded: C. albicans, MRSA, S. pneumoniae,; also recorded: E. faecalis, C. jeikeium",
1T-59 (AVGNNLGKDNDSGHRGKKHRKHKHR),"S. aureus, S. epidermidis, P. aeruginosa",,
PF-002 (NDDAQ),,"yeast and hyphal forms; also recorded: S. epidermidis, P. mirabilis, C. albicans,; also recorded: C. jeikeium, C. jejuni",
PF-007 (MGIIAGIIKVIKSLIEQFTGK),,"S. epidermidis, M. luteus, E. coli,; also recorded: P. aeruginosa, C. albicans,; also recorded: MRSA, S. pneumoniae, E. faecalis,; also recorded: C. jeikeium",
TT-310 (TKLKKNNKLLSAKKENTLHTKDK),,"F. nucleatum,",
PF-174 (RGGDSPARRRPGLAGPGGPG),,"S. epidermidis, P. aeruginosa, C. jeikeium",
PF-061 (GYNSYKAVQDVKTHSEEQRVTAKK),,"S. epidermidis, S. pneumoniae",
1T-293 (HVEDCFLLSNARTTAIHGRANPARGEPRTRSE),,"A. naeslundii, F. nucleatum, P. gingivalis,; also recorded: S. epidermidis, S. gordonii,; also recorded: S. mitis, S. mutans, S. oralis,; also recorded: S. salivarious, S. sanguinis",
1T-165 (CYDSFDFSIFVTFANRMKLSVGS),"A. naeslundii, F. nucleatum, P. gingivalis,; also recorded: S. epidermidis, S. gordonii,; also recorded: S. mitis, S. mutans, S. oralis,; also recorded: S. salivarious, S. sanguinis",,
PF-794 (NLYFENQGN),,,Target(s) [3]: S. mutans
1T-133 (YFIKDDNEALSKDWEVIGNDLKGTIDKYGKEFKVR),"A. naeslundii, P. gingivalis, S. epidermidis,; also recorded: S. gordonii, S. mitis,; also recorded: S. mutans, S. oralis, S. salivarious,; also recorded: S. sanguinis",,
1T-252 (MKKNLKRFYALVLGFIIGCLFVSILIFIGY),,"F. nucleatum, S. sanguinis",
PF-171 (TQVTLCRTW),,"S. epidermidis, E. coli, P. aeruginosa,; also recorded: S. pneumoniae",
PF-042 (LLLSYFRYTGALLQSLF),,"S. epidermidis, M. luteus, P. mirabilis,; also recorded: E. coli, P. aeruginosa,; also recorded: C. albicans, MRSA, S. pneumoniae,; also recorded: E. faecalis, C. jeikeium",
1T-215 (VCFKDISVFLSPFRGQEVLFCGKAKHSLIYVIGT),S. sanguinis,,
PF-154 (GIKKSKHPSTDDYVVKTTIDSL),,S. mutans,
PF-C290 (GNVHPESDFHNLIQFIKTFLYFTIFFKYFL),,,"Target(s) [3]: A. naeslundii, F. nucleatum, P. gingivalis,; also recorded: S. mutans, T. denticola"
PF-049 (AYYLKRREEKGK),,"S. epidermidis, MRSA, C. jeikeium,; also recorded: C. jejuni",
PF-058 (FADQSQDNA),,"S. epidermidis, M. luteus, E. coli,; also recorded: C. albicans, MRSA, C. jeikeium,; also recorded: C. jejuni",
1T-256 (KGKSLMPLLKQINQWGKLYL),,S. sanguinis,
PF-W (FIDSFIRSF),,,Target(s) [3]: S. mutans
